Consider 4 molecules from US20250257075A1, “MACROCYCLIC INHIBITORS OF KRAS FOR THE TREATMENT OF CANCER” (Hoffmann-La Roche Inc., priority 2022, published 2025).

Series [1] concerns the target T1, KRAS G12C-BRAF complex (Homo sapiens, UniProt P01116+P62937, G12C).
T1 construct: expressed in transfected cells
Kind of series: KRAS-BRAF with CYPA (500 nM) interaction assay (TR-FRET), G12C. The format is biochemical. Conditions: 3 hours. The procedure, abridged:
(§1)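 TR-FRET (Ex320 nm, Em 665/615 nm) measured compound- or compound-CYPA-dependent disruption of KRAS-BRAF complex, with CYPA at 500 nM. Disruption scored as decrease in TR-FRET ratio versus DMSO control wells.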

For another series, the system named is AGS cells (KRAS G12D). Briefly: Cell viability assay, G12D. The conditions noted are these: Homo sapiens, 72 hrs, Cell Counting Kit-8. The format is cell-based, human. The procedure, abridged: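 IC50 derived by 4-parameter sigmoidal fit of CCK-8 signal (OD450−OD650, 2 h development) after 72 h compound exposure in 0.5% DMSO. Seeding density was 5,000 cells/well for NCI-H358 and 2,000 cells/well for AGS and SW620, plated overnight before dosing.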

Series [2] is described as follows: GSH Reaction Rates (inherent GSH reactivity). The conditions noted are these: for T½(hour) in GSH: pH 7.4, up to 6 h. The format is in vitro ADME. The text has this: Glutathione (GSH) is a tripeptide found in most of the tissues, especially in high concentrations in the liver, and plays critical roles in protecting cells from oxidative damage and the toxicity of xenobiotic electrophiles, and maintaining redox homeostasis. More specifically, glutathione conjugation helps contribute to detoxification by binding electrophiles that could otherwise bind to proteins or nucleic acids, resulting in cellular damage and genetic mutations.
Many potentially toxic electrophilic xenobiotics and some endogenous compounds are detoxified by conversion to the corresponding glutathione S-conjugate, which consumes inherent GSH and then diminishes detoxification effects. Some drugs and halogenated workplace/environmental contaminants are bioactivated by this mechanism.
Therefore Strategy to minimize the GSH metabolism is very critical. Short T1/2 in inherent GSH reaction indicated high GSH reaction rate. Thus T1/2 in inherent GSH reaction assay was determined for the screening of candidates.
Reference compounds and compounds of this invention potentially could form conjugation with GSH either through halogenated moieties substitution reaction or direct Michael addition reaction. This test was therefore performed to check GSH reactivity of listed compounds.
For inherent GSH reactivity determination, compounds at 1 μM were incubated at 37° C. with and without 5 mM GSH for 0, 0.5, 1, 2, 4 and 6 h in 100 mM potassium phosphate buffer at pH 7.4. At the end of the designated time points, samples were quenched with acetonitrile containing 10 mM N-ethylmaleimide and an internal standard. Quenched samples were centrifuged, and supernatants were analyzed by LC-MS/MS for compound quantification.

The target in series [3] is T1, KRAS G12C-BRAF complex. Kind of series: KRAS G12C-BRAF NanoBit assay in HEK293 cells. Conditions: HEK293 stable cell pool, 3 hours of incubation. The format is cell-based. The procedure, abridged:
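HEK293 stable pool co-expressing SmBiT-KRAS G12C and BRAF RBD-LgBiT, exposed 3 h to compounds (16-point 3-fold dilution, top final 30 μM). Luminescence was read 20 min after Nano-Glo Live Cell substrate addition. A decrease versus DMSO control indicates disruption of the complex.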

For series [4], the target named is KRAS G12V binding to BRAF (Homo sapiens, UniProt P01116+P62937, G12V). Kind of series: KRAS-BRAF with CYPA (500 nM) interaction assay (TR-FRET), G12V. The format is biochemical. The conditions noted are these: 3 hours. The procedure, abridged:
as §1

Where [5] appears, read: 1 μM compound, 5 mM GSH, 37° C., pH 7.4, 6 hr.
The mark [6] stands for this setting: 1 μM compound, 5 mM GSH, 37° C.

T1 sequence (P01116 1-188 isoform P01116-2 G12C): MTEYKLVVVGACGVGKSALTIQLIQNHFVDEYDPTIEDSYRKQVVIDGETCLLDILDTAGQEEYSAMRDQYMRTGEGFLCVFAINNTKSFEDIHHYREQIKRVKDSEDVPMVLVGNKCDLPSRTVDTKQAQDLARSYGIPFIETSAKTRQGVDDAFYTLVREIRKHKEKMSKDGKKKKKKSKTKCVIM
T1 sequence (P62937 whole entry): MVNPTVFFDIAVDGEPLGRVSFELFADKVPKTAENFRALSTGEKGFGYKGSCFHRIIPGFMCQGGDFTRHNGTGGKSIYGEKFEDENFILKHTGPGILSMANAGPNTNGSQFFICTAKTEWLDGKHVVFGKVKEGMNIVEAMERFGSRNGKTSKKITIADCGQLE
Sequence of KRAS G12V binding to BRAF (P01116 1-188 isoform P01116-2 G12V): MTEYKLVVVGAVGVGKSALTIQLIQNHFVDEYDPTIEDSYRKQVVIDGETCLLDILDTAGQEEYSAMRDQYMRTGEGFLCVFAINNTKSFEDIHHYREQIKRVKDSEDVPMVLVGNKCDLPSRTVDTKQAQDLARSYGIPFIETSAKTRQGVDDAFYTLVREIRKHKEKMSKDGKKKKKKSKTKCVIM
Sequence of KRAS G12V binding to BRAF (P62937 whole entry): as the sequence (P62937 whole entry) above

Take `CO[C@@H](C)c1ncc(N2CCN(C)CC2)cc1-c1c2c3cc(c(F)cc3n1CC(F)(F)F)-c1csc(n1)C[C@H](NC(=O)[C@H](C(C)C)N(C)C(=O)[C@H]1C[C@@H](C#CC(F)(F)F)C1)C(=O)N1CCC[C@H](N1)C(=O)OCC(C)(C)C2` (atropisomer, axis not shown; (M)) [Example 3, cis-N-[(1S)-1-[[(7S,13S)-24-fluoro-(20M)-20-[2-[(1S)-1-methoxyethyl]-5-(4-methylpiperazin-1-yl)-3-pyridyl]-17,17-dimethyl-8,14-dioxo-21-(2,2,2-trifluoroethyl)-15-oxa-4-thia-9,21,27,28-tetrazapentacyclo[17.5.2.1^2,5.1^9,13.0^22,26]octacosa-1(25),2,5(28),19,22(26),23-hexaen-7-yl]carbamoyl]-2-methyl-propyl]-N-methyl-3-(3,3,3-trifluoroprop-1-ynyl)cyclobutanecarboxamide]: the IC50 against KRAS G12C-BRAF complex [1] was 0.099 µM; in the series with AGS cells (KRAS G12D), 3.57 µM; against KRAS G12C-BRAF complex [3], 0.036 µM; in series [4], greater than 10 µM. In series [2] (setting [5]), the “Remaining at 6 hr in GSH (%)” value came out at 100%. Moreover, the “T½(hour) in GSH” value in series [2] (setting [6]) is “stable (If % depletion after 6 hour incubation is less than 20%, compounds were reported as stable)”.
Regarding `CCn1c(-c2cc(N3CCN(CC(F)(F)F)CC3)cnc2[C@H](C)OC)c2c3cc(c(F)cc31)-c1csc(n1)C[C@H](NC(=O)[C@H](C(C)C)N(C)C(=O)[C@H]1C[C@@H](C#CC(F)(F)F)C1)C(=O)N1CCC[C@H](N1)C(=O)OCC(C)(C)C2` (atropisomer, axis not shown; (M)) [Example 8, cis-N-[(1S)-1-[[(7S,13S)-21-ethyl-24-fluoro-(20M)-20-[2-[(1S)-1-methoxyethyl]-5-[4-(2,2,2-trifluoroethyl)piperazin-1-yl]-3-pyridyl]-17,17-dimethyl-8,14-dioxo-15-oxa-4-thia-9,21,27,28-tetrazapentacyclo[17.5.2.1^2,5.1^9,13.0^22,26]octacosa-1(25),2,5(28),19,22(26),23-hexaen-7-yl]carbamoyl]-2-methyl-propyl]-N-methyl-3-(3,3,3-trifluoroprop-1-ynyl)cyclobutanecarboxamide], the IC50 against KRAS G12C-BRAF complex [1] was 0.118 µM; in the series with AGS cells (KRAS G12D), greater than 5 µM; at KRAS G12C-BRAF complex [3] it was 0.054 µM; in series [4], greater than 10 µM. Also, the “Remaining at 6 hr in GSH (%)” value in series [2] (setting [5]) is 90%. The “T½(hour) in GSH” value in series [2] (setting [6]) is reported as “stable (If % depletion after 6 hour incubation is less than 20%, compounds were reported as stable)”.
Turning to `CCn1c(-c2cc(N3CCOCC3)cnc2[C@H](C)OC)c2c3cc(c(F)cc31)-c1csc(n1)C[C@H](NC(=O)[C@H](C(C)C)N(C)C(=O)[C@H]1C[C@@H](C#CC(F)(F)F)C1)C(=O)N1CCC[C@H](N1)C(=O)OCC(C)(C)C2` (atropisomer, axis not shown; (M)) [Example 11, cis-N-[(1S)-1-[[(7S,13S)-21-ethyl-24-fluoro-(20M)-20-[2-[(1S)-1-methoxyethyl]-5-morpholino-3-pyridyl]-17,17-dimethyl-8,14-dioxo-15-oxa-4-thia-9,21,27,28-tetrazapentacyclo[17.5.2.1^2,5.1^9,13.0^22,26]octacosa-1(25),2,5(28),19,22(26),23-hexaen-7-yl]carbamoyl]-2-methyl-propyl]-N-methyl-3-(3,3,3-trifluoroprop-1-ynyl)cyclobutanecarboxamide], the concentration for half-maximal inhibition (IC50) was 0.065 µM on KRAS G12C-BRAF complex [1], greater than 10 µM in the series with AGS cells (KRAS G12D), 0.012 µM against KRAS G12C-BRAF complex [3] and greater than 10 µM in series [4]. The “Remaining at 6 hr in GSH (%)” value in series [2] (6 h, 1 μM, pH 7.4) amounted to 94%.
`CC#CC(=O)N1CC[C@H](C(=O)N(C)[C@H](C(=O)N[C@H]2Cc3nc(cs3)-c3ccc4c(c3)c(c(-c3cccnc3[C@H](C)OC)n4CC)CC(C)(C)COC(=O)[C@@H]3CCCN(N3)C2=O)C(C)C)C1` [Example A168, reference compound]: the half-inhibitory concentration (IC50) against KRAS G12C-BRAF complex [1] worked out at 0.173 µM; in the series with AGS cells (KRAS G12D) it was 2.19 µM; against KRAS G12C-BRAF complex [3], 0.205 µM; in series [4], 3.62 µM. Further, the “Remaining at 6 hr in GSH (%)” value in series [2] (6 h, 1 μM, pH 7.4) is listed as 77%. Moreover, the half-life at 1 μM in series [2] (pH 7.4) is 28.9 h.
